Reference: patent US4619942A, “Inhibition of Respiratory Syncytial virus-induced cell fusion by amidino compounds” (priority 1983, dated 1986)
Like-named read-outs stand apart in the source and are kept apart here.

Assays:
RS virus [1] = test system: RS virus
trypsin-like enzymes = conditions: relative to benzamidine; cited from earlier work
cell growth = conditions: cited from earlier work
A549 [2] = experiment: Toxicity on A549 cells; conditions: A549 (human lung); data not shown
CV-1 [3] = experiment: Toxicity on CV-1 cells; conditions: CV-1 (monkey kidney); data not shown
BHK-21 [4] = experiment: Toxicity on BHK-21 cells; conditions: BHK-21 (hamster kidney); data not shown
RS virus [5] = experiment: RS virus cytopathology / syncytium formation in Hep-2 cells (Table 3); conditions: Hep-2, added 2 hour post infection
A549 [6] = test system: A549
CV-1 [7] = test system: CV-1
BHK-21 [8] = test system: BHK-21
pancreatic kallikrein = conditions: cited from earlier work

Structure (SMILES)	Single cycle yield of RS virus (RS virus titers) (RS virus [1])	Effectiveness against trypsin-like enzymes versus benzamidine (trypsin-like enzymes)	Concentration reducing cell growth rates (cell growth)	Pattern of toxicity compared with Hep-2 cells (A549 [2])	Pattern of toxicity compared with Hep-2 cells (CV-1 [3])	Pattern of toxicity compared with Hep-2 cells (BHK-21 [4])	Effect on RS virus cytopathology (syncytia) (RS virus [5]; 0.1 μM)	Effect on RS virus cytopathology (syncytia) (RS virus [5]; 1.0 μM)	Cytotoxicity relative to other compounds (in words) (Hep-2 cells)	Pattern of toxicity compared with Hep-2 cells (A549 [6])	Pattern of toxicity compared with Hep-2 cells (CV-1 [7])	Pattern of toxicity compared with Hep-2 cells (BHK-21 [8])	Single cycle yield of RS virus (RS virus titers) (RS virus [1]; 10 μM, moi 1-2, control titers 1-5 × 10^7)	Ki (pancreatic kallikrein)
N=C(N)c1ccc(OCCCCCOc2ccc(C(=N)N)cc2)cc1 [Compound 2, Pentamidine]	6.3 × 10^4 TCID50/ml	generally an order of magnitude more effective than benzamidine	5 to 40 µM	identical pattern of toxicity	identical pattern of toxicity	identical pattern of toxicity	S	S	–	–	–	–	–	–
N=C(N)c1ccc(OCc2cccc(COc3ccc(C(=N)N)cc3I)c2)c(I)c1 [Compound 6, α,α'-Bis(4-amidino-2-iodophenoxy)-m-xylene]	–	–	–	–	–	–	S	S	as toxic as pentamidine	identical pattern of toxicity	identical pattern of toxicity	identical pattern of toxicity	6.3 × 10^6 TCID50/ml	31 nM
